Where two headings read alike, the source gives them in different places.
Experiments:
[1] = target: T1, insulin receptor B (Homo sapiens, UniProt P06213); test: Insulin receptor B autophosphorylation in transfected cells (Cisbio Phospho-IR beta Tyr1150/1151 kit); assay type: cell-based; conditions: for Relative HI activity: relative to human insulin; for Relative 0% HSA activity: 1.5% HSA relative to 0% HSA
T1 construct: expressed in transfected cells
Procedure: The phosphorylation level of insulin receptor B was detected by Cisbio's Phospho-IR beta (Tyr1150/1151) kit method to evaluate the biological activity of insulin. The cells were seeded into a 96-well plate overnight, and after the serum in the medium was removed, 40 μl of serum-free medium was added to culture for about 4 h. Then a dilution series of insulin derivatives were prepared with blank solution (0.6% casein, 0.06 mg/mL EDTA, 1×DPBS) and incubated with cells in the 96-well plate for 5 min in a CO2 incubator (37° C., 5% CO2). The liquid in the 96-well plate was poured off, 100 µL of a mixture of lysis buffer (2% Triton X-100, 150 mM NaCl, 50 mM HEPES, pH=7) and inhibitor (Blocking Reagent in the kit) was added to lyse the cells, then the plate was shaken at 350 rpm for 30 min. Relative activity (in percent (%)) was assessed by measuring insulin receptor phosphorylation levels in the supernatant after cell lysis and fitting a curve to the data using nonlinear regression in Graphpad Prism 5 software. Related assays were also used, in which the blank solution also contained 1.5% HSA to simulate physiological conditions. Changes in the phosphorylation levels of the insulin-activated insulin receptors of the invention were detected as an indirect reflection of the albumin binding activity.

[2] = system: STZ-induced type I diabetes mellitus (T1DM) C57BL/6 mice; test: Hypoglycemic effect, repeated administration (three times) to STZ-induced T1DM C57BL/6 mice (Example 6); assay type: in vivo; design: key to random blood glucose: blood glucose in mmol/L; conditions: for random blood glucose: Mean ± SEM, n = 7
Procedure: SPF grade C57BL/6 mice were reared in a suitable rearing box in a barrier environment, with a rearing temperature of 20-26° C., a humidity of 40-70%, a time between day and night of 12 h/12 h, and the mice had free access to standard food and autoclaved sterilization water. After the 3-day quarantine period and the 2-day acclimation period, the mice were fasted for 12 h, and the mice were injected intraperitoneally with streptozotocin solution (STZ, 13 mg/mL, in citrate buffer) at 130 mg/kg. 3 Days and 7 days after administration of streptozotocin, random blood glucose and fasting blood glucose were detected, and the random blood glucose value above 25 mmol/L and fasting blood glucose value above 11.1 mmol/L were selected as T1DM model mice for follow-up experiments. On the day before administration, random blood glucose was monitored and mice were weighed. Mice were divided into 6 groups according to random blood glucose and body weight.
Subcutaneous administration (S.C.) was used to administer the corresponding vehicle or drug, once every 4-5 days, for a total of 3 administrations. During the experiment, the animals were allowed to eat and drink water freely. The random blood glucose before the first administration, and 0.25, 0.5, 1, 2, 4, 6, 8, 10, 24, 48, 72, and 96 h after administration were assessed, as well as the random blood glucose before the second and third administration, and 0.5, 1, 2, 6, 24, 48, 72, 96 and 120 h after administration.
(§1) All raw data were entered into Excel files and expressed as Mean±SEM. Statistical analysis of data was performed using Graphpad Prism 7.0 software, one-way or two-way ANOVA comparison method, and P<0.05 was used as the criterion for significant differences.

[3] = dog, in vivo, iv, 10 nmol/kg
Procedure: Two beagle dogs, one in each group, a double-cycle crossover design was used, with a washout period of 1 week, and a single dose of 10 nmol/kg of Icodec or Insulin-a10 was administered to the lateral small saphenous vein of the hind limb in each cycle, the blood was collected and plasma was centrifuged at 0.083, 0.25, 0.5, 1, 2, 6, 8, 24, 30, 48, 72 and 96 h after administration, the concentration of Icodec or Insulin-a10 in the plasma was detected.

[4] = rat, in vivo, sc, 10 nmol/kg
[5] = system: normal C57BL/6 mice; test: Hypoglycemic effect, single subcutaneous administration to normal C57BL/6 mice; assay type: in vivo; design: blood glucose: unit not given here; conditions: for blood glucose: Mean ± SEM, n = 6; for blood glucose compared with the control group: 1 h after single S.C. administration
Procedure: SPF grade C57BL/6 mice were reared in a suitable rearing box in a barrier environment, with a rearing temperature of 20-26° C., a humidity of 40-70%, a time between day and night of 12 h/12 h, and the mice had free access to standard food and autoclaved sterilization water. After a 3-day quarantine period and a 2-day acclimation period, random blood glucose was measured and mice were weighed. Mice were divided into 6 groups according to random blood glucose and body weight.
Single subcutaneous administration (S.C.) was used to administer the corresponding vehicle or drug. The control group was administered the vehicle PBS without fasting during the whole process, and the animals were allowed to eat and drink freely. Random blood glucose values of C57 mice were measured before administration and at 0.25, 0.5, 1, 2, 4, 6, 8, 10, 24, 48, 54, 72 and 96 hours after administration.
as §1

[6] = 500 nmol/Kg S.C. three times, Day 0 (1st)
[7] = 500 nmol/Kg S.C. three times, Day 1
[8] = 500 nmol/Kg S.C. three times, Day 4 (2nd)
[9] = 500 nmol/Kg S.C. three times, Day 5
[10] = 500 nmol/Kg S.C. three times, Day 9 (3rd)
[11] = 500 nmol/Kg S.C. three times, Day 10
[12] = 500 nmol/Kg S.C. three times, Day 14
[13] = single S.C., Degludec 200 nmol/Kg, others 1400 nmol/Kg

T1 sequence (P06213 28-758 limits assumed): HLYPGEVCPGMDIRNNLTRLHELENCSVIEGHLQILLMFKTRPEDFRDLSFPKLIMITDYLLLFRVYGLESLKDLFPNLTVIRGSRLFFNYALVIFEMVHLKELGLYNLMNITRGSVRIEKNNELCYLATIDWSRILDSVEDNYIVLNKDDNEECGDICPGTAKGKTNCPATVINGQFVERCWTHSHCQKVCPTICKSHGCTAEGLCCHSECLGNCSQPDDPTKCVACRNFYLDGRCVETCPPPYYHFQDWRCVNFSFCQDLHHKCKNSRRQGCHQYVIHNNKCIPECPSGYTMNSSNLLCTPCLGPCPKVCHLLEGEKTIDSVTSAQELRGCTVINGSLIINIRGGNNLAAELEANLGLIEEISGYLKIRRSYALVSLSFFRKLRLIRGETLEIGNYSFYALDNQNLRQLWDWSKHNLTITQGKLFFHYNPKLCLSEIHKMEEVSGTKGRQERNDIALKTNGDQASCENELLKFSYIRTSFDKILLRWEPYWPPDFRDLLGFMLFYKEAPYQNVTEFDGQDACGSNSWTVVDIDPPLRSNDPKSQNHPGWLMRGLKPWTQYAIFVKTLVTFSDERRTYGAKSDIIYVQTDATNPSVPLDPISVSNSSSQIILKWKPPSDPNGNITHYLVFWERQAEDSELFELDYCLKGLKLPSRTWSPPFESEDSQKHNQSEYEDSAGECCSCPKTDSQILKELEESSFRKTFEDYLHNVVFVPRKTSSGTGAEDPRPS
T1 sequence (P06213 763-1382 partner limits assumed): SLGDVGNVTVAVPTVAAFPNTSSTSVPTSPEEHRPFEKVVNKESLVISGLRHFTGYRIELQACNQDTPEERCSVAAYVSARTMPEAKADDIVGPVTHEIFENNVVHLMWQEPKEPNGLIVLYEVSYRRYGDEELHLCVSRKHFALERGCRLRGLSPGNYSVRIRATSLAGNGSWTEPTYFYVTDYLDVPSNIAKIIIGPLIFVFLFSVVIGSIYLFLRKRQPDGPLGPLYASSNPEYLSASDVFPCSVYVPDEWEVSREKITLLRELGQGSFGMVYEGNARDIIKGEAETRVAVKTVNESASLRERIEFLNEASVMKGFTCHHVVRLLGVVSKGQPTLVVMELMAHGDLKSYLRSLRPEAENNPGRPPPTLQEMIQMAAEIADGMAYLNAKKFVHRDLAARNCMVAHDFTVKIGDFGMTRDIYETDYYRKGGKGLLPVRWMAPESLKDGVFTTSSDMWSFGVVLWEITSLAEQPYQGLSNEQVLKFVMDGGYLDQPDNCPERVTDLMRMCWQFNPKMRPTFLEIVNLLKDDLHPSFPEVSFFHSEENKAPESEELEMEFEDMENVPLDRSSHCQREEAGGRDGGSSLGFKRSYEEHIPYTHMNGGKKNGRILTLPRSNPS

| EC50 ([1]; 0% HSA) [nM] | Relative HI activity ([1]; 0% HSA) [%] | EC50 ([1]; 1.5% HSA) [nM] | Relative 0% HSA activity [1] [%] | Relative HI activity ([1]; 1.5% HSA) [%] | Substance | random blood glucose [2, 6] | random blood glucose [2, 7] | random blood glucose [2, 8] | random blood glucose [2, 9] | random blood glucose [2, 10] | random blood glucose [2, 11] | random blood glucose [2, 12] | AUClast [3] [ng·h/mL] | T1/2 [3] [h] | AUClast [4] [ng·h/mL] | MRTINF_obs [4] [h] | T1/2 [4] [h] | blood glucose compared with the control group [5] | effective blood glucose control time [5, 13] | time after administration at which blood glucose reached the lowest level [5, 13] [h] | further results |
| --- | --- | --- | --- | --- | --- | --- | --- | --- | --- | --- | --- | --- | --- | --- | --- | --- | --- | --- | --- | --- | --- |
| 85.5 | 1.44 | 1310 | 6.52 | 0.20 | A14E, B16H, B25H, B29K(N(ε)-COOH(CH2)18CO-L-Lys-CO(CH2)2CO—(OEG)2), desB30 human insulin analog [Insulin-a10] | 32.0 ± 1.7 | 19.7 ± 6.6 | 27.6 ± 4.4 | 15.2 ± 8.9 | 26.6 ± 5.7 | 11.7 ± 9.4 | 26.1 ± 6.2 | 28300 ± 3500 | 46 ± 10.8 | 9350 | 29.2 | 17.2 | decreased significantly | more than 96 h | 72 | effective glucose control time ([2]; 500 nmol/Kg S.C.): 120 h; time after administration at which blood glucose returned to normal level ([2]; 500 nmol/Kg S.C., after the first administration): 96 h; time after administration at which blood glucose returned to normal level ([2]; 500 nmol/Kg S.C., after the second and third administrations): 120 h; time after each administration at which blood glucose reached the lowest level ([2]; Icodec 250, 500 and 1000 nmol/kg, Insulin-a3 and Insulin-a10 500 nmol/Kg): 24 h; glucose control effect compared with the Icodec-1000 nmol/kg group ([2]; test drug 500 nmol/Kg S.C.): equivalent; blood glucose ([5]; 0 h (before administration), single S.C., Degludec 200 nmol/Kg, others 1400 nmol/Kg): 9.1 ± 1.5; blood glucose ([5]; 0.25 h after single S.C., Degludec 200 nmol/Kg, others 1400 nmol/Kg): 7.9 ± 1.5; blood glucose ([5]; 1 h after single S.C., Degludec 200 nmol/Kg, others 1400 nmol/Kg): 4.4 ± 0.6; blood glucose ([5]; 2 h after single S.C., Degludec 200 nmol/Kg, others 1400 nmol/Kg): 4.4 ± 1.3; blood glucose ([5]; 4 h after single S.C., Degludec 200 nmol/Kg, others 1400 nmol/Kg): 3.7 ± 1.0; blood glucose ([5]; 6 h after single S.C., Degludec 200 nmol/Kg, others 1400 nmol/Kg): 3.5 ± 1.1; blood glucose ([5]; 8 h after single S.C., Degludec 200 nmol/Kg, others 1400 nmol/Kg): 3.1 ± 1.0; blood glucose ([5]; 10 h after single S.C., Degludec 200 nmol/Kg, others 1400 nmol/Kg): 2.8 ± 0.7; blood glucose ([5]; 24 h after single S.C., Degludec 200 nmol/Kg, others 1400 nmol/Kg): 2.1 ± 0.7; blood glucose ([5]; 48 h after single S.C., Degludec 200 nmol/Kg, others 1400 nmol/Kg): 1.7 ± 0.6; blood glucose ([5]; 72 h after single S.C., Degludec 200 nmol/Kg, others 1400 nmol/Kg): 1.8 ± 0.1; blood glucose ([5]; 96 h after single S.C., Degludec 200 nmol/Kg, others 1400 nmol/Kg): 4.0 ± 4.0; effect on blood glucose control compared with Icodec ([5]; single S.C. 1400 nmol/Kg): consistent with the trend of Icodec and can be maintained for a longer time; time after administration at which blood glucose returned to normal [5, 13]: > 96 h |
| 77.2 | 1.60 | 1480 | 5.23 | 0.17 | A14E, B16H, B25H, B29K (N^ε-eicosandioyl-gGlu-2xOEG), DesB30 human insulin analog [Icodec, reference compound] | 32.5 ± 1.6 | 20.3 ± 6.3 | 30.6 ± 2.6 | 19.5 ± 5.8 | 27.0 ± 7.1 | 15.9 ± 6.0 | 33.0 ± 0.9 | 35700 ± 120 | 35.7 ± 6.7 | 6560 | 30.5 | 16.7 | decreased significantly | 96 h | 48 | random blood glucose ([2]; 250 nmol/Kg S.C. three times, Day 0 (1st)): 32.5 ± 2.2; random blood glucose ([2]; 250 nmol/Kg S.C. three times, Day 1): 25.7 ± 4.2; random blood glucose ([2]; 250 nmol/Kg S.C. three times, Day 4 (2nd)): 31.3 ± 2.6; random blood glucose ([2]; 250 nmol/Kg S.C. three times, Day 5): 25.1 ± 3.2; random blood glucose ([2]; 250 nmol/Kg S.C. three times, Day 9 (3rd)): 31.8 ± 2.2; random blood glucose ([2]; 250 nmol/Kg S.C. three times, Day 10): 17.2 ± 6.8; random blood glucose ([2]; 250 nmol/Kg S.C. three times, Day 14): 30.6 ± 4.6; random blood glucose ([2]; 1000 nmol/Kg S.C. three times, Day 0 (1st)): 30.8 ± 2.9; random blood glucose ([2]; 1000 nmol/Kg S.C. three times, Day 1): 20.4 ± 4.6; random blood glucose ([2]; 1000 nmol/Kg S.C. three times, Day 4 (2nd)): 31.6 ± 2.1; random blood glucose ([2]; 1000 nmol/Kg S.C. three times, Day 5): 12.8 ± 5.4; random blood glucose ([2]; 1000 nmol/Kg S.C. three times, Day 9 (3rd)): 29.7 ± 3.7; random blood glucose ([2]; 1000 nmol/Kg S.C. three times, Day 10): 10.1 ± 6.4; random blood glucose ([2]; 1000 nmol/Kg S.C. three times, Day 14): 27.7 ± 4.6 |
